Measured values reported in patent publication US10214609B2, “Polyglyoxylates, manufacture and use thereof” (THE UNIVERSITY OF WESTERN ONTARIO, priority 2014, dated 2019).

How the values were obtained:
[1] = Nile red encapsulation and triggered release from micelles; details: dissolved in ethanol, same irradiation periods
[2] = Thermogravimetric analysis (TGA) of polymers; format: physicochemical
Source text: Ethyl glyoxylate in toluene solution (50% w/w), phenyl isocyanate, dibutyltin dilaurate (DBTL), benzyl chloroformate, 4-dimethylaminopyridine (DMAP), 4-bromomethyl-3-nitrobenzoic acid, methanesulfonyl chloride and benzyl bromide were obtained from Alfa Aesar (Canada). Fumaric acid and maleic acid were purchased from Acros Organics (USA). 6-Nitroveratryl chloroformate (NVOC-Cl) was obtained from Chem-Impex International, Inc. (USA). Propargyl amine was purchased from AK Scientific, Inc. (USA). 4-(Hydroxymethyl)phenylboronic acid pinacol ester and hydrogen peroxide solution (50 wt %) in water, hydrazine hydrate, dimethyl sulfide, sodium azide (NaN3), tin (II)chloride dehydrate, phosgene solution (15 wt. % in toluene), nile red and poly(ethylene glycol) methyl ether (MW=5000 g/mol, 2000 g/mol and 750 g/mol) were purchased from Sigma-Aldrich (USA). 1-Ethyl-3-(3-dimethylaminopropyl) carbodiimide hydrochloride (EDC.HCl) was purchased from Creo Salus (USA). Thionyl chloride (Alfa Aesar) was distilled under argon prior to use. Triethylamine (Et3N), pyridine, and dichloromethane were distilled from calcium hydride before use. Anhydrous tetrahydrofuran (THF) and N,N-dimethylformamide (DMF) were obtained from a solvent purification system using aluminum oxide columns. All the other chemicals were of reagent grade and used without further purification. ^1H NMR spectra were obtained in CDCl3 at 400 MHz or 600 MHz on Varian Inova instruments. NMR chemical shifts (δ) are reported in ppm and are calibrated against residual solvent signals of CDCl3 (δ 7.27), acetonitrile-d3 (δ 1.94), DMSO-d6 (δ 2.50) or deuterium oxide (δ 4.75). Fourier transform infrared spectra (FT-IR) were obtained using a Bruker tensor 27 instrument with films drop cast from CH2Cl2 on KBr plates. High-resolution mass spectrometry (HRMS) was performed using a Finnigan MAT 8400 electron impact (EI) mass spectrometer. The SEC instrument was equipped with a Viscotek GPC Max VE2001 solvent module. Samples were analyzed using the Viscotek VE3580 RI detector operating at 30° C. The separation technique employed two Agilent Polypore (300×7.5 mm) columns connected in series and to a Polypore guard column (50×7.5 mm). Samples were dissolved in THF (glass distilled grade) in approximately 5 mg/mL concentrations and filtered through 0.22 μm syringe filters. Samples were injected using a 100 μL loop. The THF eluent was filtered and eluted at 1 ml/min for a total of 30 minutes. A calibration curve was obtained from Polystyrene samples with molecular weight ranges of 1,540-1,126,000/mol Differential scanning calorimetry (DSC) and thermogravimetric analysis (TGA) were performed on a Mettler Toledo DSC 822e. For TGA the heating rate was 10° C./min between 50-400° C. under nitrogen. For DSC, the heating/cooling rate was 10° C./min from −100 to +17° C. Glass transition temperatures were obtained from the second heating cycle. Ultrapure water was obtained from a Barnstead EASYpure II system. Dialyses were performed using Spectra/Por regenerated cellulose membranes with 3500 g/mol MWCO.

[3] = NMR degradation study of the micelles; format: physicochemical; details: over 24 h at 37° C., pH 7.4 buffered D2O
Description: 16 mg of block copolymer 21 b was fully dissolved in 0.8 mL of DMSO-d6. 0.2 mL of the resulting solution was rapidly injected into 1.0 mL of 100 mM, pH 7.4 phosphate or 100 mM, pH 5.0 citrate buffered D2O. After stirring for 0.5 h, the micelle suspension was transferred into two NMR tubes. One tube was then irradiated for 10 min in with UV light (wavelength: 300-350 nm, 23 mW cm^−2), while the other one was kept in the dark. A ^1H NMR spectrum was obtained immediately following irradiation (10 min time point in the graph), then the samples were incubated at 37° C. and spectra were obtained at regular intervals over 24 h. Complete depolymerization was confirmed for the irradiated sample as the sum of the integration of the methyl peaks corresponding to EtGH and ethanol (1.0-1.2 ppm) plateaud at a very similar (1198) value to that of the methyl peak at 1.17-1.45 ppm in the block copolymer 21b taken in CDCl3 (integration 1152) when setting the PEG peak integral to 364. The % polymer remaining was calculated as 100−(sum of integration from 1.0-1.2 ppm/1198))*100.

Compound	Change of fluorescence intensity on irradiation (photostability) [1]	To (onset degradation temperature) [2]	Tp (peak degradation temperature) [2]	Hydrolysis to glyoxylic acid and ethanol [3]
CCN(CC)c1ccc2nc3c4ccccc4c(=O)cc-3oc2c1 [nile red]	no detectable decrease in intensity	–	–	–
PEtG-co-poly(n-butyl glyoxylate) [Polymer 15]	–	208 °C	236 °C	–
CCOC(=O)C=O.O [EtGH, ethyl glyoxylate hydrate]	–	–	–	~45%
poly(benzyl glyoxylate) [Polymer 13]	–	195 °C	229 °C	–
PEtG-co-poly(methyl glyoxylate) [Polymer 14]	–	181 °C	203 °C	–
